{"source": "patent US20210069199A1", "about": "“METHODS OF TREATING TRANSPLANT REJECTION” (priority 2015, published 2021)", "key": {"[1]": {"tested_on": "GVHD in recipient mice", "assay": "murine model of MHC-disparate allogeneic hematopoietic cell transplantation (GVHD)", "format": "in vivo", "conditions": "100 mg/kg twice a day by oral gavage for 4 weeks beginning on the day of MHC-disparate allo-HCT"}, "[2]": {"tested_on": "IL-2 induced STATS phosphorylation", "assay": "IL-2 induced STAT5 phosphorylation in human CD4+ T-cells", "format": "cell-based", "conditions": "2.5 μM", "text": "(§1) This offers a platform to reduce Th17 development, while promoting Treg populations."}, "[3]": {"tested_on": "myelofibrosis patients", "conditions": "unlike JAK1/JAK2 inhibitors; cited from earlier work"}, "[4]": {"tested_on": "human T-cells", "assay": "allogeneic mixed leukocyte reaction, T-cell proliferation", "format": "cell-based", "conditions": "2.5 μM, after 5 days of culture, DC:T-cell ratio 1:30; control 100%; P<0.0001", "text": "as §1"}, "[5]": {"tested_on": "STAT3 activity by IL-6", "assay": "STAT3 activity by IL-6 in human CD4+ T-cells", "format": "cell-based", "conditions": "2.5 μM", "text": "as §1"}, "[6]": {"target": "T1, JAK3 (Homo sapiens, UniProt P52333)", "T1 sequence (P52333 1-1124)": "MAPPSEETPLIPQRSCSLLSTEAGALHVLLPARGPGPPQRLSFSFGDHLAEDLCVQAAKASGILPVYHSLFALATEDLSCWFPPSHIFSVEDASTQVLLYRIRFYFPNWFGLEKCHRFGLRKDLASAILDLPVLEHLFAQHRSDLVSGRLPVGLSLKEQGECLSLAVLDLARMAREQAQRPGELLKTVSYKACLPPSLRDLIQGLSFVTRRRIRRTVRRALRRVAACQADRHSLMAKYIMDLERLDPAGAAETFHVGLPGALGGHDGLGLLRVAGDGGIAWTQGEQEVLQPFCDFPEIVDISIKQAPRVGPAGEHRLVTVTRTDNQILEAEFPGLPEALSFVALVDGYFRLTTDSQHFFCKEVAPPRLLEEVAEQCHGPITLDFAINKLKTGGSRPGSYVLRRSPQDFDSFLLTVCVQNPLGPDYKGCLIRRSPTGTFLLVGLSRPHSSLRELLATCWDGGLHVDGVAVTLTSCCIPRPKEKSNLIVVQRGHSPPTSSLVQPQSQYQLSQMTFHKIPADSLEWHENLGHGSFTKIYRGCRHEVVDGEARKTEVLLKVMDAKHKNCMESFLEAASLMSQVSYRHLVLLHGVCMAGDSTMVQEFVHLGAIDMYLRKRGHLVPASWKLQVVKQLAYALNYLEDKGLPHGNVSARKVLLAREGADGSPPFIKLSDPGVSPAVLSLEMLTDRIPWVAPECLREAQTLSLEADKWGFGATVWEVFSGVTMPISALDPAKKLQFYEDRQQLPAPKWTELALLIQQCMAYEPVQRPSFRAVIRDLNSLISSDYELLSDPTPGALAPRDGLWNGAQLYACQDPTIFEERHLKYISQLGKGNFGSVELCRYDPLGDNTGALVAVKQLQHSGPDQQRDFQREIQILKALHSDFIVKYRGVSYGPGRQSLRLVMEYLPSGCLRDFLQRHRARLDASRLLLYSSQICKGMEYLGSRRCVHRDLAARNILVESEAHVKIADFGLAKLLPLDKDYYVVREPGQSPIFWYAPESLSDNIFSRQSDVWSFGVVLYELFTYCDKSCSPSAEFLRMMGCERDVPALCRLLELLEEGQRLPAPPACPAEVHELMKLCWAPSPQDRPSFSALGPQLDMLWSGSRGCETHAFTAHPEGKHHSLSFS", "conditions": "cited from earlier work"}, "[7]": {"tested_on": "human skin graft rejection by allogeneic human PBMC", "assay": "human skin/NSG mouse xenograft model of solid organ graft rejection", "format": "in vivo", "text": "The inventors then evaluated whether JAK2 inhibition could prevent solid organ graft rejection, using a human skin/NSG mouse xenograft model. A 1×1 cm split-thickness human skin graft was transplanted onto the animal dorsally, followed by intraperitoneal injection of 5×10^6 allogeneic peripheral blood mononuclear cells (PBMC) 30 days after surgery."}, "[8]": {"target": "CSF1R (Homo sapiens, UniProt P07333)", "sequence (P07333 20-972, species assumed)": "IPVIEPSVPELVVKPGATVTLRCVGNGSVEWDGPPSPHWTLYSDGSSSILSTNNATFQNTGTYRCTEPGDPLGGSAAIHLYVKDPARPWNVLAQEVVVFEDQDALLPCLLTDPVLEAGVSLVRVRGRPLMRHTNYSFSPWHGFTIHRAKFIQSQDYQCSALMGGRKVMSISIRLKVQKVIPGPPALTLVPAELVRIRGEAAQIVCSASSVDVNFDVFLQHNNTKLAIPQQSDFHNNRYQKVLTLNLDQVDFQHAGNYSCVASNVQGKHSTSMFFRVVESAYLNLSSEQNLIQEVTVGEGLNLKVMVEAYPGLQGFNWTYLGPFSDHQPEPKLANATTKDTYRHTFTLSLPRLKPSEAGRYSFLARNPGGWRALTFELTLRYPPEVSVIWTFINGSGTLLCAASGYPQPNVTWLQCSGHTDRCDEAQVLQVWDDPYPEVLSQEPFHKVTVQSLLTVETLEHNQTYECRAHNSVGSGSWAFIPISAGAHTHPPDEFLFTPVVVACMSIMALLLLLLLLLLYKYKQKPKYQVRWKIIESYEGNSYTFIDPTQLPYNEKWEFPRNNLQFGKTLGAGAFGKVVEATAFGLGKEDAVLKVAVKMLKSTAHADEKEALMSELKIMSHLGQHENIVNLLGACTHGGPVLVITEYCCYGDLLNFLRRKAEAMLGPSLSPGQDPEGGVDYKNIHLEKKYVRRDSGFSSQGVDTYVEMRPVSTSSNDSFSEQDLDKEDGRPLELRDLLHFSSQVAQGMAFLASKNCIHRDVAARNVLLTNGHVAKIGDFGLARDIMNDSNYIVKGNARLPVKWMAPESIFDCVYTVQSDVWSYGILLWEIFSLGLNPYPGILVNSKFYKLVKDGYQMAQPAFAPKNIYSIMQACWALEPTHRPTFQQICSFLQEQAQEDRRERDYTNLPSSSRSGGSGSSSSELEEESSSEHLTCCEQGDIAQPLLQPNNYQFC", "conditions": "cited from earlier work"}, "[9]": {"target": "IRAK1 (Homo sapiens, UniProt P51617)", "sequence (P51617 whole entry, species assumed)": "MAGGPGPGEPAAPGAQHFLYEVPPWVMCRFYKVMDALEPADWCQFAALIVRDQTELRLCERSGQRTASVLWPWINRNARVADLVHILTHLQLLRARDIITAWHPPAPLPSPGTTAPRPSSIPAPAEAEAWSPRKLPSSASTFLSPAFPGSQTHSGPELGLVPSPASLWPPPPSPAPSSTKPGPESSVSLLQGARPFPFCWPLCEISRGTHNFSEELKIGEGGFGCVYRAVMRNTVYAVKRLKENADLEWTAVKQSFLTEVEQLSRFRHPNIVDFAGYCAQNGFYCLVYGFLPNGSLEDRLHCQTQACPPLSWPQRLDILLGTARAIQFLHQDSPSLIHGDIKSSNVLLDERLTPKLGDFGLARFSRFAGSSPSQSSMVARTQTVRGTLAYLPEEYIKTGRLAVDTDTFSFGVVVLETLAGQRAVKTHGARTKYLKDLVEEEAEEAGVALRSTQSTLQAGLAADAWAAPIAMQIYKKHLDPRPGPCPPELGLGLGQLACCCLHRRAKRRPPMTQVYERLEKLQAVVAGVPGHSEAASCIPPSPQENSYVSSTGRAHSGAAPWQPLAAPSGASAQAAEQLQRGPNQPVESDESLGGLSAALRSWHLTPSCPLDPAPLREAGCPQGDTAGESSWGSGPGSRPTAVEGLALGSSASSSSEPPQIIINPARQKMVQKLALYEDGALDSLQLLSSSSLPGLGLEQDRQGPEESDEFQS", "conditions": "cited from earlier work"}, "[10]": {"tested_on": "iTregs", "assay": "suppressive potency of iTregs generated with allogeneic DCs in the presence of drug", "format": "cell-based, human", "conditions": "iTregs generated with allogeneic DCs for 5 days with drug, then cultured with self T-cell responders and fresh DCs without drug", "text": "as §1"}}, "data": [{"smiles": "C1=C/COCc2cc(ccc2OCCN2CCCC2)Nc2nccc(n2)-c2cccc(c2)COC/1", "note": "[pacritinib, 11-(2-Pyrrolidinl-yl-ethoxy)-14,19-dioxa-5,7,26-triazatetracyclo[19.3.1.1^2,6.1^8,12] heptacosa-1(25),2(26),3,5,8,10,12(27),16,21,23-decaene]", "values": [{"measurement": "GVHD in recipient mice", "setting": "[1]", "result": "significantly reducing GVHD"}, {"measurement": "IL-2 induced STATS phosphorylation", "setting": "[2]", "result": "permitting IL-2 induced STATS phosphorylation"}, {"measurement": "myelosuppression", "setting": "[3]", "result": "does not induce myelosuppression"}, {"measurement": "risk for opportunistic infections", "setting": "[3]", "result": "does not induce myelosuppression or increase risk for opportunistic infections"}, {"measurement": "Mean proliferation (T-cell)", "setting": "[4]", "result": 23.7, "unit": "%"}, {"measurement": "STAT3 activity by IL-6", "setting": "[5]", "result": "eliminated STAT3 activity by IL-6"}, {"measurement": "suppressive activity toward JAK3", "setting": "[6]", "result": "has suppressive activity toward JAK3"}, {"measurement": "Day 60 survival (graft)", "setting": "[7]; 100 mg/kg twice a day oral gavage for 15 days from PBMC injection, vehicle 0%", "result": 33.3, "unit": "%"}, {"measurement": "Median graft survival", "setting": "[7]; 100 mg/kg twice a day oral gavage for 15 days from PBMC injection, vehicle 32.5 days, P=0.0011", "result": 51, "unit": "days"}, {"measurement": "lymphocytic infiltration of skin graft (H&E, CD3 IHC)", "setting": "[7]; skin grafts at day +21, before onset of graft rejection", "result": "reduces lymphocytic infiltration of the tissue"}, {"measurement": "suppressive activity toward CSF1R", "setting": "[8]", "result": "has suppressive activity toward JAK3, CSF1R"}, {"measurement": "suppressive activity toward IRAK1", "setting": "[9]", "result": "has suppressive activity toward JAK3, CSF1R, and IRAK1"}, {"measurement": "suppressive potency of treated iTregs versus DMSO-treated iTregs", "setting": "[10]", "result": "similar"}]}]}
